Data published in patent publication US10150774B2, “Compounds and methods” (INTRA-CELLULAR THERAPIES, INC., priority 2014, dated 2018).

system: PDE1; test: Measurement of PDEIB inhibition in vitro using IMAP phosphodiesterase assay kit; assay type: biochemical, bovine or human
Text: Example 10: Measurement of PDEIB Inhibition in Vitro Using IMAP Phosphodiesterase Assay Kit
Phosphodiesterase I B (PDEIB) is a calcium/calmodulin dependent phosphodiesterase enzyme that converts cyclic guanosine monophosphate (cGMP) to 5′-guanosine monophosphate (5′-GMP). PDEIB can also convert a modified cGMP substrate, such as the fluorescent molecule cGMP-fluorescein, to the corresponding GMP-fluorescein. The generation of GMP-fluorescein from cGMP-fluorescein can be quantitated, using, for example, the IMAP (Molecular Devices, Sunnyvale, Calif.) immobilized-metal affinity particle reagent.
Briefly, the IMAP reagent binds with high affinity to the free 5′-phosphate that is found in GMP-fluorescein and not in cGMP-fluorescein. The resulting GMP-fluorescein-IMAP complex is large relative to cGMP-5 fluorescein. Small fluorophores that are bound up in a large, slowly tumbling, complex can be distinguished from unbound fluorophores, because the photons emitted as they fluoresce retain the same polarity as the photons used to excite the fluorescence.
In the phosphodiesterase assay, cGMP-fluorescein, which cannot be bound to IMAP, and therefore retains little fluorescence polarization, is converted to GMPfluorescein, which, when bound to IMAP, yields a large increase in fluorescence polarization (mp). Inhibition of phosphodiesterase, therefore, is detected as a decrease in mp.
Materials: All chemicals are available from Sigma-Aldrich (St. Louis, Mo.) except for IMAP reagents (reaction buffer, binding buffer, FL-GMP and IMAP beads), which are available from Molecular Devices (Sunnyvale, Calif.).
Assay: The following phosphodiesterase enzymes may be used: 3′,5′-cyclic-nucleotide specific bovine brain phosphodiesterase (Sigma, St. Louis, Mo.) (predominantly PDEIB) and recombinant full length human PDE1 A and PDE1B (r-hPDE1 A and r-hPDE1B respectively) which may be produced e.g., in HEK or SF9 cells by one skilled in the art. The PDE1 enzyme is reconstituted with 50% glycerol to 2.5 U/mL. One unit of enzyme will hydrolyze 1.0 μmol of 3′,5′-cAMP to 5′-AMP per min at pH 7.5 at 30° C. […]
The FL-GMP conversion reaction is initiated by combining 4 parts enzyme and inhibitor mix with 1 part substrate solution ([…]) in a 384-well microtiter plate. […] The plate is incubated at room temperature for 1 hour to allow IMAP binding to proceed to completion, and then placed in an Envision multimode microplate reader (PerkinElmer, Shelton, Conn.) to measure the fluorescence polarization (mp).
A decrease in GMP concentration, measured as decreased mp, is indicative of inhibition of PDE activity.

Selectivity for PDE1, good selectivity:
CN1C(=O)c2c(nn(Cc3ccc(Cl)cc3)c2Nc2ccc(F)cc2)N2CC(C)(C)N=C12 [Example 9, 7,8-Dihydro-2-(4-chlorobenzyl)-3-(4-fluorophenylamino)-5,7,7-trimethyl-[2H]-imidazo-[1,2-a]pyrazolo[4,3-e]pyrimidin-4(5H)-one]
CN1C(=O)c2c(nn(Cc3ccc(-c4ccccn4)cc3)c2Nc2ccc(F)cc2)N2CC(C)(C)N=C12 [Example 1, 7,8-Dihydro-2-(4-(pyridine-2-yl)benzyl)-3-(4-fluorophenylamino)-5,7,7-trimethyl-[2H]-imidazo-[1,2-a]pyrazolo[4,3-e]pyrimidin-4(5H)-one]
CCCc1c2c(nn1Cc1ccc(-c3ccc(F)cn3)cc1)N1CC(C)(C)N=C1N(C)C2=O [Example 7, 7,8-Dihydro-2-(4-(5-fluoropyridin2-yl)benzyl)-3-propyl-5,7,7-trimethyl-[2H]-imidazo-[1,2-a]pyrazolo[4,3-e]pyrimidin-4(5H)-one]
CCc1c2c(nn1Cc1ccc(-c3ccc(F)cn3)cc1)N1CC(C)(C)N=C1N(C)C2=O [Example 5, 7,8-Dihydro-2-(4-(5-fluoropyridin2-yl)benzyl)-3-ethyl-5,7,7-trimethyl-[2H]-imidazo-[1,2-a]pyrazolo[4,3-e]pyrimidin-4(5H)-one]
